The values that follow come from ChEMBL document CHEMBL3132829, “Optimization of triazole-based TGR5 agonists towards orally available agents” (Medchemcomm, 2013).

What all share (assay type): ADME, organism-based, Canis lupus familiaris
Data set [1] in a line: Cmax in beagle dog at 1 mg/kg, iv and 3 mg/kg, po by LC-MS/MS analysis. Conditions: in vivo.
Data set [2] is described as follows: Tmax in beagle dog at 1 mg/kg, iv and 3 mg/kg, po by LC-MS/MS analysis. Conditions: in vivo.
A short description of data set [3]: Volume of distribution at steady state in beagle dog at 1 mg/kg, iv and 3 mg/kg, po by LC-MS/MS analysis. Conditions: in vivo, read-out: Vdss.
A short description of data set [4]: Oral bioavailability in beagle dog at 3 mg/kg by LC-MS/MS analysis. Conditions: in vivo.
Data set [5] is described as follows: Half life in beagle dog at 1 mg/kg, iv and 3 mg/kg, po by LC-MS/MS analysis. Conditions: in vivo.

As a reminder, the Cmax is the peak of the concentration-time curve. For orientation: Tmax means the time from dosing to the highest level. Usually bioavailability stands for dose-corrected exposure relative to a reference, in per cent. As usually defined, the half-life is the time in which the quantity being followed falls by half. The compound `COc1cccc(-n2nnc(C3CC3)c2C(=O)N(C)c2ccc(C#N)cc2)c1` had a maximum concentration (Cmax) in data set [1] of 510 nM. For the same compound, the Tmax in data set [2] was found to be 0.25 h. The Vd in data set [3] stood at 4.6 L/kg. In data set [4], the bioavailability is 17%. In data set [5], this compound had a half-life of 4.7 h.
